Key:
[1] = tested on: human embryonic stem cell derived neural stem cells (NSCs); assay: Neural stem cell proliferation assay (neurogenesis assay, ATP levels by CellTiterGlo); format: cell-based; settings: 96 h, concentration at which 150% activity of control (100%) is reached, NSC proliferation, ATP levels after 4 days incubation, dose response 8 μM to 8 nM
Method: Neural Stem Cell Proliferation Assay
Neurogenic properties of small molecules are determined based on the proliferation of human embryonic stem cell derived neural stem cells (NSCs) which were derived via a dual smad inhibition as previously described (Chambers, S. M., et al., Highly efficient neural conversion of human ES and iPS cells by dual inhibition of SMAD signaling, Nature biotechnology, 2009. 27(3): p. 275-80.)
Compounds respond is measured by the increase in cells based on ATP levels (Promega:CellTiterGlo®) after an incubation period of 4 days.
NSCs are thawed and expanded over 3 passages. On the 14th day, NSCs are seeded in Polyornithin/Laminin coated 384 well plates at a cell density of 21′000 cells/cm^2 in a media volume of 38 μl. 4 hours after cell seeding, compound solutions are added at a volume of 2 μl. Stock solutions of the compounds (water, 5% DMSO) are diluted to obtain a dose response (11 points, dilution factor is 2), ranging from 8 μM to 8 nM. Controls are run to consistently determine the neurogenic properties of the cells:
Negative (neutral) control is cell culture Media (final DMSO concentration: 0.25%).
1. cell culture Media+100 ng/ml FGF2 (final DMSO concentration: 0.1%)
2. cell culture Media+20 ng/ml EGF (final DMSO concentration: 0.1%)
3. cell culture Media+100 ng/ml Wnt3a (final DMSO concentration: 0.1%)
After 4 days incubation at 37° C., 5% CO2, the amount of ATP per well is quantified. The ATP concentration is proportional to the cell number. ATP is quantified by using the Promega CellTiterGlo® kit. The CellTiterGlo® reagents contain a cell lysis buffer, a thermo stable luciferase (UltraGlo™ recombinant luciferase), magnesium and luciferin. Luciferin reacts with ATP producing oxyluciferin, AMP and light. The luminescence signal is proportional to the ATP content.
The value of negative (neutral) control is determined for each assay plate by taking the average of 16 negative control wells. The neurogenic compound response is calculated for each compound as (compound/Negative Control)*100.
The values of EC150 from the dose response curve are determined for each test compound. The EC150 is the compound concentration at which 150% activity of control (100%) is reached.

Structure (SMILES) | EC (150% of control) [1] [µM] | melting point [°C]
Cc1cc(F)cc2cc3n(c12)CCCNC3=O [Example 1, 9-Fluoro-7-methyl-2,3,4,5-tetrahydro-[1,4]diazepino[1,2-a]indol-1-one] | 0.21 | 198
Cc1cc(F)cc2cc3n(c12)CCNC3=O [Example 2, 8-Fluoro-6-methyl-3,4-dihydro-2H-pyrazino[1,2-a]indol-1-one] | 0.17 | 250.5
Cc1c2n(c3c(CC(C)C)cc(F)cc13)CCNC2=O [Example 3, 8-Fluoro-6-isobutyl-10-methyl-3,4-dihydro-2H-pyrazino[1,2-a]indol-1-one] | 0.009 | 189
Cc1c2n(c3ccc(F)cc13)CCNC2=O [Example 4, 8-Fluoro-10-methyl-3,4-dihydro-2H-pyrazino[1,2-a]indol-1-one] | 0.31 | 230
Cc1c2n(c3c(C)cc(F)cc13)CCNC2=O [Example 5, 8-Fluoro-6,10-dimethyl-3,4-dihydro-2H-pyrazino[1,2-a]indol-1-one] | 0.074 | 208
Cc1c2n(c3c(N4CCOCC4)cc(F)cc13)CCNC2=O [Example 6, 8-Fluoro-10-methyl-6-morpholin-4-yl-3,4-dihydro-2H-pyrazino[1,2-a]indol-1-one] | 0.21 | 226
Cc1c2n(c3c(C)cc(Cl)cc13)CCNC2=O [Example 7, 8-Chloro-6,10-dimethyl-3,4-dihydro-2H-pyrazino[1,2-a]indol-1-one] | 0.11 | 251
CCc1cc(F)cc2c(C)c3n(c12)CCNC3=O [Example 8, 6-Ethyl-8-fluoro-10-methyl-3,4-dihydro-2H-pyrazino[1,2-a]indol-1-one] | 0.019 | 177
Cc1c2n(c3c(N4CCS(=O)(=O)CC4)cc(F)cc13)CCNC2=O [Example 9, 6-(1,1-Dioxo-1λ^6-thiomorpholin-4-yl)-8-fluoro-10-methyl-3,4-dihydro-2H-pyrazino[1,2-a]indol-1-one] | 0.015 | 387
CCc1cc(Cl)cc2c(C)c3n(c12)CCNC3=O [Example 10, 8-Chloro-6-ethyl-10-methyl-3,4-dihydro-2H-pyrazino[1,2-a]indol-1-one] | 0.34 | 191
C=CCc1cc(F)cc2c(C)c3n(c12)CCNC3=O [Example 11, 6-Allyl-8-fluoro-10-methyl-3,4-dihydro-2H-pyrazino[1,2-a]indol-1-one] | 0.14 | 172
Cc1c2n(c3c(CCC(C)C)cc(F)cc13)CCNC2=O [Example 12, 8-Fluoro-10-methyl-6-(3-methyl-butyl)-3,4-dihydro-2H-pyrazino[1,2-a]indol-1-one] | 0.07 | 161
Cc1c2n(c3c(CCCC#N)cc(F)cc13)CCNC2=O [Example 13, 4-(8-Fluoro-10-methyl-1-oxo-1,2,3,4-tetrahydro-pyrazino[1,2-a]indol-6-yl)-butyronitrile] | 0.31 | 194
Cc1c2n(c3c(CC(C)C)cc(Cl)cc13)CCNC2=O [Example 14, 8-Chloro-6-isobutyl-10-methyl-3,4-dihydro-2H-pyrazino[1,2-a]indol-1-one] | 0.19 | 199
Cc1c2n(c3c(Cc4ccc(F)cc4)cc(F)cc13)CCNC2=O [Example 15, 8-Fluoro-6-(4-fluoro-benzyl)-10-methyl-3,4-dihydro-2H-pyrazino[1,2-a]indol-1-one] | 0.16 | 178
Cc1c2n(c3c(N4CC5(COC5)C4)cc(F)cc13)CCNC2=O [Example 16, 8-Fluoro-10-methyl-6-(2-oxa-6-aza-spiro[3.3]hept-6-yl)-3,4-dihydro-2H-pyrazino[1,2-a]indol-1-one] | 0.23 | 237
Cc1c2n(c3c(N4CCS(=O)(=O)CC4)cc(Cl)cc13)CCNC2=O [Example 17, 8-Chloro-6-(1,1-dioxo-1λ^6-thiomorpholin-4-yl)-10-methyl-3,4-dihydro-2H-pyrazino[1,2-a]indol-1-one] | 0.011 | 386

Structure (SMILES) | EC (150% of control) [1] [µM] | melting point [°C]
Cc1c2n(c3c(N4CCOCC4)cc(Cl)cc13)CCNC2=O [Example 18, 8-Chloro-10-methyl-6-morpholin-4-yl-3,4-dihydro-2H-pyrazino[1,2-a]indol-1-one] | 0.039 | 207
Cc1c2n(c3c(N4CCS(=O)(=O)CC4)cc(C#N)cc13)CCNC2=O [Example 19, 6-(1,1-Dioxo-1λ^6-thiomorpholin-4-yl)-10-methyl-1-oxo-1,2,3,4-tetrahydro-pyrazino[1,2-a]indole-8-carbonitrile] | 0.008 | 400
C#Cc1cc(F)cc2c(C)c3n(c12)CCNC3=O [Example 20, 6-Ethynyl-8-fluoro-10-methyl-3,4-dihydro-2H-pyrazino[1,2-a]indol-1-one] | 0.04 | 259
CC(C)Cc1cc(C#N)cc2cc3n(c12)CCNC3=O [Example 21, 6-Isobutyl-1-oxo-1,2,3,4-tetrahydro-pyrazino[1,2-a]indole-8-carbonitrile] | 0.14 | 260.5
CC(C)Cc1cc(F)cc2cc3n(c12)CCCNC3=O [Example 22, 9-Fluoro-7-isobutyl-2,3,4,5-tetrahydro-[1,4]diazepino[1,2-a]indol-1-one] | 0.11 | 157
CC(C)Cc1cc(F)cc2cc3n(c12)CCNC3=O [Example 23, 8-Fluoro-6-(2-methylpropyl)-3,4-dihydro-2H-pyrazino[1,2-a]indol-1-one] | 0.02 | 229
Cc1c2n(c3c(OCC(F)(F)F)cc(F)cc13)CCNC2=O [Example 24, 8-Fluoro-10-methyl-6-(2,2,2-trifluoroethoxy)-3,4-dihydro-2H-pyrazino[1,2-a]indol-1-one] | 0.17 | 239
CC(C)Cc1cc(Cl)cc2cc3n(c12)CCCNC3=O [Example 25, 9-Chloro-7-(2-methylpropyl)-2,3,4,5-tetrahydro-[1,4]diazepino[1,2-a]indol-1-one] | 1.15 | 186
CC(C)Cc1cc(Cl)cc2cc3n(c12)CCNC3=O [Example 26, 8-Chloro-6-(2-methylpropyl)-3,4-dihydro-2H-pyrazino[1,2-a]indol-1-one] | 0.16 | 236
Cc1cc(Cl)cc2cc3n(c12)CCNC3=O [Example 27, 8-Chloro-6-methyl-3,4-dihydro-2H-pyrazino[1,2-a]indol-1-one] | 5.1 | 263
Cc1cc(Cl)cc2cc3n(c12)CCCNC3=O [Example 28, 9-Chloro-7-methyl-2,3,4,5-tetrahydro-[1,4]diazepino[1,2-a]indol-1-one] | 4.1 | 207
Cc1c2n(c3c(C#N)cc(F)cc13)CCNC2=O [Example 29, 8-Fluoro-10-methyl-1-oxo-3,4-dihydro-2H-pyrazino[1,2-a]indole-6-carbonitrile] | 0.5 | 265
Cc1c2n(c3c(OC(F)(F)F)cc(C#N)cc13)CCNC2=O [Example 30, 10-Methyl-1-oxo-6-(trifluoromethoxy)-3,4-dihydro-2H-pyrazino[1,2-a]indole-8-carbonitrile] | 0.11 | 253
Cc1cc(CC(C)C)c2c(c1)cc1n2CCNC1=O [Example 31, 8-Methyl-6-(2-methylpropyl)-3,4-dihydro-2H-pyrazino[1,2-a]indol-1-one] | 1.16 | 182
Cc1cc(CC(C)C)c2c(c1)cc1n2CCCNC1=O [Example 32, 9-Methyl-7-(2-methylpropyl)-2,3,4,5-tetrahydro-[1,4]diazepino[1,2-a]indol-1-one] | 2.6 | 160
Cc1cc(C)c2c(c1)cc1n2CCNC1=O [Example 33, 6,8-Dimethyl-3,4-dihydro-2H-pyrazino[1,2-a]indol-1-one] | 4.9 | 253
Cc1c2n(c3c(CC(C)C)cc(C#N)cc13)CCCNC2=O [Example 34, 11-Methyl-7-(2-methylpropyl)-1-oxo-2,3,4,5-tetrahydro-[1,4]diazepino[1,2-a]indole-9-carbonitrile] | 0.13 | 235

Reference: patent US9586966B2, “Piperazino[1,2-a]indol-1-ones and [1,4]diazepino[1,2-a]indol-one” (Hoffmann-La Roche Inc., priority 2013, dated 2017)
